Test results reported in ChEMBL document CHEMBL1136971, “Nascent structure-activity relationship study of a diastereomeric series of kappa opioid receptor antagonists derived from CJ-15,208” (Bioorg Med Chem Lett, 2009).
Square brackets hold non-standard residues; d marks the D form. Peptide text beside a SMILES is read from it.

Columns and labels:
Mu-type opioid receptor [1] = molecular target: T1, Mu-type opioid receptor (Homo sapiens, UniProt P35372); test: Displacement of [3H]diprenorphine from human cloned mu receptor by cell based assay
[2] = molecular target: T2, Kappa-type opioid receptor (Homo sapiens, UniProt P41145); test: Displacement of [3H]diprenorphine from human cloned kappa opioid receptor by cell based assay
[3] = molecular target: Delta-type opioid receptor (Homo sapiens, UniProt P41143); test: Displacement of [3H]diprenorphine from human cloned delta receptor by cell based assay
Homo sapiens = organism: Homo sapiens; test: Ratio of Ki for human cloned mu opioid receptor to Ki for human cloned kappa opioid receptor
Mu-type opioid receptor [4] = molecular target: T1, Mu-type opioid receptor; test: Antagonist activity at human cloned mu opioid receptor assessed as inhibition of 100 nM loperamide-stimulated GTPgammaS binding by cell based assay; format: functional
[5] = molecular target: T2, Kappa-type opioid receptor; test: Antagonist activity at human cloned kappa opioid receptor assessed as inhibition of 50 nM U50488H-stimulated GTPgammaS binding by cell based assay; format: functional
[6] = molecular target: Kappa-type opioid receptor (Cavia porcellus, UniProt P41144); test: Binding affinity to kappa opioid receptor in guinea pig brain membrane; format: cell membranes
Mu-type opioid receptor [7] = molecular target: Mu-type opioid receptor (Cavia porcellus, UniProt P97266); test: Binding affinity to mu opioid receptor in guinea pig brain membrane; format: cell membranes
[8] = Antagonist activity at kappa opioid receptor in rabbit vas deferens assessed as reversal of asimadoline-suppressed electrically-stimulated twitch response; format: functional, tissue-based; conditions: Oryctolagus cuniculus
[9] = Binding affinity to delta opioid receptor in guinea pig brain membrane; format: cell membranes, Cavia porcellus

T2 sequence (P41145 whole entry): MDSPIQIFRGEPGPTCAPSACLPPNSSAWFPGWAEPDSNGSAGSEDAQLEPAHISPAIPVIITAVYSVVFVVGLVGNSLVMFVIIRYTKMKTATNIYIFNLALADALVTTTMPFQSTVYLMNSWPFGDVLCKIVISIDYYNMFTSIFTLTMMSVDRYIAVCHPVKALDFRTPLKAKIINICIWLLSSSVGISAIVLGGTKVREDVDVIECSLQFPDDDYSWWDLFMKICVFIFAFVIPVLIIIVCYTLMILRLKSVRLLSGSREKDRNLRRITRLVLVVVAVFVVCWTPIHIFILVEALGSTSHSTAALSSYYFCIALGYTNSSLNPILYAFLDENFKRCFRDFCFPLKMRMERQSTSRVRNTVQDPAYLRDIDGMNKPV
T1 sequence (P35372 whole entry): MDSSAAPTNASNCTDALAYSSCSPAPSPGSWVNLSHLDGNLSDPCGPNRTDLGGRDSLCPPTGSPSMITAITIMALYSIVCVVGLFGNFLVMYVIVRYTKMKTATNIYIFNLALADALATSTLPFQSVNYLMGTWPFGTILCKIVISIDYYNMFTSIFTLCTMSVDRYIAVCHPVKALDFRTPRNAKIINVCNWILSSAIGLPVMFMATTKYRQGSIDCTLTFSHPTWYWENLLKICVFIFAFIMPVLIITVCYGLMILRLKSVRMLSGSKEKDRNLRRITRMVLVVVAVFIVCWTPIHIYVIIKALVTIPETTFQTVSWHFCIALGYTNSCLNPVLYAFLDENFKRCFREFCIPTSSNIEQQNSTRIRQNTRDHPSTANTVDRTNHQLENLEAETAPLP
Sequence of Delta-type opioid receptor (P41143 whole entry): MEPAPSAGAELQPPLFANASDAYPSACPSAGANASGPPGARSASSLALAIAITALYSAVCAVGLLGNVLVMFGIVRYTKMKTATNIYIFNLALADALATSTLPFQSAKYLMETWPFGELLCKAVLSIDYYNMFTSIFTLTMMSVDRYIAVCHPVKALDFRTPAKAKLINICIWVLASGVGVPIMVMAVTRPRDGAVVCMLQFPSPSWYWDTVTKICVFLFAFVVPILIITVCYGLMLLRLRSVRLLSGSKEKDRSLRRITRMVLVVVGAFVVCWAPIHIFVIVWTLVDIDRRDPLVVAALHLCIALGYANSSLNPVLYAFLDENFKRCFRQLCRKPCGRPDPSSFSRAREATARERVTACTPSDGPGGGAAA
Sequence of Kappa-type opioid receptor (Cavia porcellus, UniProt P41144) (P41144 whole entry): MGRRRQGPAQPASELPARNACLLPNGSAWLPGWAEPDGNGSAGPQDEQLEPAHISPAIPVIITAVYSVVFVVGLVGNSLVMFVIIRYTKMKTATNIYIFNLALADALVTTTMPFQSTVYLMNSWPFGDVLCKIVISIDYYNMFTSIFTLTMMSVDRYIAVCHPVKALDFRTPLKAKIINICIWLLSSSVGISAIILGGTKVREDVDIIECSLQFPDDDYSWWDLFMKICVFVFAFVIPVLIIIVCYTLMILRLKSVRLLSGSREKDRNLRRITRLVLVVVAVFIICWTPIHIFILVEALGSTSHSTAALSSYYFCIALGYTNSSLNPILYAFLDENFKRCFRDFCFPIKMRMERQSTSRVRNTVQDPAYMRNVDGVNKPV
Sequence of Mu-type opioid receptor (Cavia porcellus, UniProt P97266) (P97266 whole entry): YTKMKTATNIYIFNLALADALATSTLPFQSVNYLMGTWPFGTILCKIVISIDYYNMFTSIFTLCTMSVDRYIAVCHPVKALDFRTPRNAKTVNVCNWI

| SMILES | Ki (Mu-type opioid receptor [1]) [nM] | Ki [2] [nM] | Ki [3] [nM] | Ratio Ki (Homo sapiens) | IC50 (Mu-type opioid receptor [4]) [nM] | IC50 [5] [nM] | IC50 [6] [nM] | IC50 (Mu-type opioid receptor [7]) [nM] | EC50 [8] [nM] | IC50 [9] [nM] |
| --- | --- | --- | --- | --- | --- | --- | --- | --- | --- | --- |
| O=C1N[C@H](Cc2c[nH]c3ccccc23)C(=O)N[C@@H](Cc2cccc(O)c2)C(=O)N2CCC[C@@H]2C(=O)N[C@H]1Cc1ccccc1 | 37 | 78 | 670 | 0.47 |  |  |  |  |  |  |
| CC(=O)n1cc(C[C@H](N)C(=O)N[C@@H](Cc2ccccc2)C(=O)N2CCC[C@@H]2C(=O)N[C@@H](Cc2ccccc2)C(N)=O)c2ccccc21 | > 1000 | > 1000 | > 1000 |  |  |  |  |  |  |  |
| O=C1N[C@H](Cc2c[nH]c3ccccc23)C(=O)N[C@@H](Cc2ccc(F)cc2)C(=O)N2CCC[C@@H]2C(=O)N[C@H]1Cc1ccccc1 | 210 | 28 | > 1000 | 7.5 |  |  |  |  |  |  |
| CC(=O)N[C@@H](Cc1ccccc1)C(=O)N1CCC[C@@H]1C(=O)N[C@@H](Cc1ccccc1)C(=O)N[C@@H](Cc1c[nH]c2ccccc12)C(N)=O | > 1000 | > 1000 | > 1000 |  |  |  |  |  |  |  |
| COc1ccc(C[C@@H]2NC(=O)[C@@H](Cc3c[nH]c4ccccc34)NC(=O)[C@H](Cc3ccccc3)NC(=O)[C@H]3CCCN3C2=O)cc1 | 170 | 66 | > 1000 | 2.6 |  |  |  |  |  |  |
| CC(=O)N[C@@H](Cc1ccccc1)C(=O)N1CCC[C@@H]1C(=O)N[C@@H](Cc1ccccc1)C(=O)N[C@H](Cc1c[nH]c2ccccc12)C(N)=O | > 1000 | > 1000 | > 1000 |  |  |  |  |  |  |  |
| C[C@@H]1NC(=O)[C@H]2CCCN2C(=O)[C@H](Cc2ccccc2)NC(=O)[C@@H](Cc2c[nH]c3ccccc23)NC1=O (cyclo(A[dW]F[dP])) | 2200 | 1300 | > 1000 | 1.7 |  |  |  |  |  |  |
| O=C1N[C@H](Cc2c[nH]c3ccccc23)C(=O)N[C@@H](Cc2ccccc2)C(=O)N2CCC[C@@H]2C(=O)N[C@H]1Cc1ccccc1 (cyclo(F[dP]F[dW])) | 30 | 3.8 | > 1000 | 7.9 | 21 | 140 |  |  |  |  |
| CC(=O)N1CCC[C@@H]1C(=O)N[C@@H](Cc1ccccc1)C(=O)N[C@@H](Cc1c[nH]c2ccccc12)C(=O)N[C@@H](Cc1ccccc1)C(N)=O | > 1000 | > 1000 | > 1000 |  |  |  |  |  |  |  |
| O=C1N[C@H](Cc2c[nH]c3ccccc23)C(=O)NCC(=O)N2CCC[C@@H]2C(=O)N[C@H]1Cc1ccccc1 | 770 | 270 | > 1000 | 2.8 |  |  |  |  |  |  |
| O=C1N[C@@H](Cc2ccccc2)C(=O)N2CCC[C@@H]2C(=O)N[C@@H](Cc2ccccc2)C(=O)N[C@H]1Cc1c[nH]c2ccccc12 (cyclo(FWF[dP])) | 130 | 29 | 2000 | 4.5 | 25 | 440 | 47 | 260 | 1300 | 2600 |
| CC(=O)N[C@H](Cc1c[nH]c2ccccc12)C(=O)N[C@@H](Cc1ccccc1)C(=O)N1CCC[C@@H]1C(=O)N[C@@H](Cc1ccccc1)C(N)=O | > 1000 | > 1000 | > 1000 |  |  |  |  |  |  |  |
| C[C@@H]1NC(=O)[C@@H](Cc2c[nH]c3ccccc23)NC(=O)[C@H](Cc2ccccc2)NC(=O)[C@H]2CCCN2C1=O (cyclo(A[dP]F[dW])) | 22 | 5.2 | > 1000 | 4.2 | 48 | 5 |  |  |  |  |
| O=C1N[C@H](Cc2c[nH]c3ccccc23)C(=O)N[C@@H](Cc2ccccc2)C(=O)N2CCC[C@@H]2C(=O)N[C@H]1Cc1ccc(F)cc1 | 48 | 21 | > 1000 | 2.3 |  |  |  |  |  |  |
| O=C1N[C@H](Cc2c[nH]c3ccccc23)C(=O)N[C@@H](Cc2ccc(O)cc2)C(=O)N2CCC[C@@H]2C(=O)N[C@H]1Cc1ccccc1 |  | 220 | > 1000 |  |  |  |  |  |  |  |
| CC(=O)N[C@@H](Cc1ccccc1)C(=O)N[C@@H](Cc1c[nH]c2ccccc12)C(=O)N[C@@H](Cc1ccccc1)C(=O)N1CCC[C@@H]1C(N)=O | > 1000 | > 1000 | > 1000 |  |  |  |  |  |  |  |
| C[C@H]1NC(=O)[C@H](Cc2ccccc2)NC(=O)[C@H]2CCCN2C(=O)[C@H](Cc2ccccc2)NC1=O | > 1000 | > 1000 | > 1000 |  |  |  |  |  |  |  |
| O=C1N[C@H](Cc2c[nH]c3ccccc23)C(=O)N[C@@H](Cc2ccccc2)C(=O)N2CCC[C@@H]2C(=O)N[C@H]1Cc1ccc(O)cc1 | 120 | 140 | > 1000 | 0.85 |  |  |  |  |  |  |
| CC(=O)N[C@@H](Cc1ccccc1)C(=O)N[C@H](Cc1c[nH]c2ccccc12)C(=O)N[C@@H](Cc1ccccc1)C(=O)N1CCC[C@@H]1C(N)=O | 360 | > 1000 | > 1000 |  |  |  |  |  |  |  |
| CC(=O)N1CCC[C@@H]1C(=O)N[C@@H](Cc1ccccc1)C(=O)N[C@H](Cc1c[nH]c2ccccc12)C(=O)N[C@@H](Cc1ccccc1)C(N)=O | 340 | > 1000 | > 1000 |  |  |  |  |  |  |  |
| O=C1N[C@H](Cc2c[nH]c3ccccc23)C(=O)N[C@@H](Cc2ccccc2)C(=O)N2CCC[C@@H]2C(=O)N[C@H]1Cc1cccc(O)c1 | 40 | 20 | 3400 | 2 |  |  |  |  |  |  |
| COc1ccc(C[C@@H]2NC(=O)[C@H]3CCCN3C(=O)[C@H](Cc3ccccc3)NC(=O)[C@@H](Cc3c[nH]c4ccccc34)NC2=O)cc1 | 43 | 14 | > 1000 | 3.1 |  |  |  |  |  |  |
